According to patent US20230218577A1, “USE OF HEAT SHOCK PROTEIN INHIBITORS FOR THE TREATMENT OF NEURODEVELOPMENTAL DISORDERS” (The Children's Medical Center Corporation, priority 2020, published 2023):

Test system: cilia (ACIII) in ctrl-sh hippocampal neurons
Test: cilia^HCA in ctrl-sh neurons
Type: cell-based, rat
Conditions: four-day dose curve between DIV9-13
Description: To investigate how mTORC1 dysregulation due to neuronal TSC loss affected ciliation, High Content image-based Assays (HCAs) were developed for unbiased quantification of cilia and mTORC1 activity (hereafter cilia^HCA and mTORC1^HCA) in primary neurons. As an in vitro model of TSC, rat hippocampal neurons transduced with lentiviral vectors (LV) expressing a short hairpin RNA (shRNA) were used directed against either the Tsc2 (Tsc2-sh) or the luciferase gene as a control (ctrl-sh) tagged with GFP. […] Both the cilia^HCA and mTORC1^HCA were optimized as imaged-based assays, where cilia and mTORC1 activity was monitored by immunofluorescent staining of ACIII to identify cilia and pS6 as a proxy of mTORC1 activation (FIGS. 8C-F). Neurons were transduced in culture at day in vitro (DIV) 1, and cilia and mTORC1 activity were assessed in a time course experiment at DIV2, 5, 7, 13, and 20 (FIG. 2A). […] Reduced ciliation was validated by manual imaging and quantification of LV-infected neurons co-labeled with ACIII/centrin (FIGS. 8G-H). No changes in size or ACIII intensity were detected in the remaining cilia of the Tsc2-sh neurons (FIGS. 8I-J). […]

C=CCNC1=C2C[C@@H](C)C[C@H](OC)[C@H](O)[C@@H](C)/C=C(\C)[C@H](OC(N)=O)[C@@H](OC)C=C/C=C(\C)C(=O)NC(=CC1=O)C2=O [17-AGG, 3 S,5S,6R,7S,8E,10R,11S,12E,14E)-21-(allylamino)-6-hydroxy-5,11-dimethoxy-3,7,9,15-tetramethyl-16,20,22-trioxo-17-azabicyclo[16.3.1]docosa-8,12,14,18,21-pentaen-10-yl] carbamate]
ciliation: did not increase
